Reference: EPA's aquatic toxicity sets
Where “and” joins values, the source holds several entries; their conditions need not be identical. Identical values can stand only once.

System: Tetrahymena pyriformis
Test: 48 h IGC50 (-log10 mol/L); higher = more toxic

Point of comparison: `CC(C)(C)c1ccc(O)c(N)c1`, “48 h IGC50 (-log10 mol/L)” value 3.37. Against it:
- ClCCCc1ccccc1 — within 0.2 log units, 3.5
- O=[N+]([O-])c1ccc(Br)c([N+](=O)[O-])c1 — higher, 5.31
- COc1ccccc1Cl — within 0.2 log units, 3.22
- C=CC(=O)OC — within 0.2 log units, 3.55
- CCCC#CCCO — lower, 2.68
- CCS(=O)(=O)c1ccccc1 — lower, 2.21
- O=Cc1cc(Cl)cc(Cl)c1O — higher, 4.55
- C=C(C)CCO — lower, 1.82
- ClCC=CCCl — higher, 4.02
- COC(=O)CCCC(=O)OC — lower, 1.83
- CC(C)(Br)C(=O)O — lower, 2.42
- OCc1cccc(F)c1 — lower, 2.61
- O=C/C(Cl)=C/c1ccccc1 — higher, 4.73
- O=C(CCl)CCl — higher, 5.05
- CCCCCC(=O)OC — lower, 2.44
- CC(=O)c1cccc([N+](=O)[O-])c1 — within 0.2 log units, 3.32
- CCCCCC/C=C/C=O — higher, 4.6
- CCCCCCCS — higher, 4.02
- NC(=O)c1ccc([N+](=O)[O-])cc1 — within 0.2 log units, 3.18
- CC(C)C(=O)O — lower, 2.67
- O=C(O)CCCCl — lower, 2.32
- CC(C)(C)c1cc(N)cc(C(C)(C)C)c1 — higher, 4.44
- C=CCCCO — lower, 1.78
- O=[N+]([O-])c1cccc(-c2ccccc2)c1 — higher, 4.57
- CCCCS(=O)(=O)CCCC — lower, 2.74
- CCCCCCNC(N)=S — higher, 3.86
- CCC(C)C(=O)OC (stereo unspecified) — lower, 1.83
- Cc1ccc(CN)cc1 — lower, 2.99
- CCOC(=O)CCCCCBr — higher, 3.59
- CC(=O)c1cc[nH]c1 — lower, 2.15
- Cc1cc(O)c([N+](=O)[O-])cc1Cl — higher, 4.63
- N#CCCCCC#N — lower, 1.46
- O=Cc1cc(O)ccc1O — within 0.2 log units, 3.28
- C=CCC(C)O (stereo unspecified) — lower, 1.48
- O=C(O)c1ccc(O)cc1 — lower, 1.98
- Oc1cc(O)c(Cl)cc1Cl — higher, 3.97
- CC(C)(C)N — lower, 2.1
- CCOC(=O)C(C(=O)OCC)=C(C)C — lower, 2.93
- CCc1ccc(N)cc1 — lower, 3.03
- CCCCCCCC=CCO — higher, 4.13
- C[C@H](N=C=S)c1ccccc1 — higher, 5.7
- O=[N+]([O-])c1c(F)c(F)c(F)c(F)c1F — higher, 5.43
- O=C(O)c1cc(Cl)cc(Cl)c1 — within 0.2 log units, 3.27
- CCCOC(=O)CCl — higher, 4.18
- CCCCCCC(=O)CCCCCC — higher, 4.52
- c1cnccn1 — lower, 1.18
- COC(=O)CC(=O)OC — lower, 1.71
- O=C(O)CCCCBr — lower, 2.31
- CCCC(C)C=O (stereo unspecified) — lower, 2.53
- O=Cc1cccc2ccccc12 — within 0.2 log units, 3.42
- Nc1cc(F)c([N+](=O)[O-])cc1[N+](=O)[O-] — higher, 4.69
- O=[N+]([O-])c1cccnc1SCc1ccccc1 — higher, 4.72
- CC(C)(C)c1ccc(O)cc1 — higher, 3.91
- O=Cc1ccc[nH]1 — lower, 2.52
- CCOC(=O)C(C)Cl (stereo unspecified) — lower, 2.57
- Cc1ccc(Cl)cc1N — within 0.2 log units, 3.5
- Oc1cccc(O)c1O — higher, 3.85
- O=[N+]([O-])c1ccc(Cl)cc1Cl — higher, 3.99
- CSc1ccccc1 — within 0.2 log units, 3.18
- CCC(=O)OCC(C)C — lower, 2.31
- CCCCCOC(C)=O — lower, 3.16
- O=[N+]([O-])c1cc(Cl)ccc1Cl — higher, 4.13
- C=CCBr — higher, 3.57
- CCCCCBr — within 0.2 log units, 3.48
- Cc1ccc(N)cc1Cl — within 0.2 log units, 3.39
- N#CCCCC#N — lower, 1.36
- COC(=O)c1ccc(C(=O)OC)c([N+](=O)[O-])c1 — within 0.2 log units, 3.43
- C=COC(=O)c1ccc(C(C)(C)C)cc1 — higher, 4.57
- CCCCCCCCC=O — higher, 3.81
- C=CC(=O)NCNC(=O)C=C — lower, 2.48
- CS(C)(=O)=O — lower, 0.8
- C=COC(=O)C=C — higher, 4.42
- COc1ccc(Cl)c(Cl)c1Cl — higher, 4.64
- COC(=O)CCCCCCC(=O)OC — within 0.2 log units, 3.3
- CCCCCCCCCCOC(C)=O — higher, 4.88
- CCOC(=O)CCl — higher, 4.06
- N#CCC(=O)OC1CCCCC1 — lower, 2.91
- COc1cc(C=O)cc(O)c1OC — lower, 2.61
- O=Cc1ccc(O)c(O)c1 — lower, 3.11
- CCOC(=O)c1ccc(Br)cc1 — higher, 4.33
- NCc1ccccc1 — lower, 2.76
- CC(=O)OCCCCCCl — lower, 2.87
- CC(C)(C)C#N — lower, 1.68
- CCOC(=O)C(Br)C(C)C (stereo unspecified) — lower, 3.02
- Cc1cc2ccccc2o1 — higher, 3.62
- COc1ccc(N)cc1O — within 0.2 log units, 3.45
- CCCCCCC=CCO — higher, 3.77
- CCCOC(=O)CC — lower, 2.19
- O=C(NO)c1ccccc1O — within 0.2 log units, 3.38
- OCCCCCCc1ccccc1 — higher, 3.87
- CC(O)CCO (stereo unspecified) — lower, 0.699
- OC/C=C\CO — lower, 0.851
- OCc1ccc2ccccc2c1 — within 0.2 log units, 3.39
- OCCC(c1ccccc1)c1ccccc1 — higher, 4.04
- CCOC(=O)c1ccc([N+](=O)[O-])cc1 — higher, 3.71
- CCC(=O)c1ccc(O)cc1 — lower, 3.12
- CCCCCCCCCCC#N — higher, 4.65
- CCC(Br)C(=O)OC (stereo unspecified) — higher, 4.02
- CCOC(=O)C(NC(C)=O)C(=O)OCC — lower, 1.8
- CC(=O)OC1=CCCCC1 — lower, 2.6
- Cc1c(O)c(Br)c(Br)c(Br)c1Br — higher, 5.57
- Brc1ccccn1 — lower, 2.46
- Oc1ccc(Cl)c(O)c1 — lower, 3.13
- C=COC(=O)c1ccccc1 — lower, 3.08
- COc1cc(O)ccc1O — higher, 5.2
- CCC/C=C/CO — lower, 2.53
- Nc1c([N+](=O)[O-])cc(Cl)cc1[N+](=O)[O-] — higher, 4.15
- OCc1ccccc1Br — lower, 3.1
- C#CC(O)CC (stereo unspecified) — lower, 1.82
- CCOC(=O)C[C@@H](C)O — lower, 1.47
- N#Cc1cccnc1 — lower, 2.26
- C/C=C/CCCO — lower, 2.25
- Sc1ccccc1 — higher, 4.66
- CC(C)(N)CO — lower, 1.07
- CCCCCCC(=O)c1ccccc1 — higher, 4.56
- C/C=C/C(=O)CC — higher, 3.92
- Nc1cccc([N+](=O)[O-])c1 — lower, 3.03
- O=[N+]([O-])c1c(F)cc(F)c(F)c1F — higher, 4.87
- C=CCS(=O)(=O)c1ccccc1 — within 0.2 log units, 3.31
- Cc1cc(C)c(O)c(N)c1 — higher, 3.89
- O=[N+]([O-])c1cccnc1Cl — higher, 3.87
- CCc1ccc(Br)cc1 — higher, 3.67
- CC(C)COC(=O)c1ccccc1 — higher, 3.98
- CC(CCO)c1ccccc1 (stereo unspecified) — lower, 3.01
- O=[N+]([O-])c1cc(Br)c(O)c(Br)c1 — higher, 4.36
- C=CCOC(=O)CCC — lower, 2.37
- Oc1c(-c2ccccc2)cccc1-c1ccccc1 — higher, 5.11
- Nc1c(Cl)cc(Cl)cc1[N+](=O)[O-] — higher, 4.26
- O=Cc1cccs1 — lower, 2.95
- O=Cc1ccccc1Br — within 0.2 log units, 3.48
- CCOC(=O)C(Br)CBr (stereo unspecified) — higher, 5.21
- CCCCCCOc1ccc(N)cc1 — higher, 4.38
- Nc1c([N+](=O)[O-])ccc2ncccc12 — higher, 3.92
- O=C(O)CCCl — lower, 2.67

For `S=C=NCCCN=C=S`, the “48 h IGC50 (-log10 mol/L)” value was 5.72 and 5.74.
